Earlier results as cited in patent publication US9585827B2, “Kits comprising a beverage composition and information for use” (The Procter & Gamble Company, priority 2000, dated 2017).

Key:
[1] = Reussner et al. 1975; phosphate added to low pH powdered beverage compositions
dental caries = conditions: Städtler et al. 1996; toothpaste formulations of near-neutral pH

SMILES: O=P1([O-])OP(=O)([O-])OP(=O)([O-])OP(=O)([O-])OP(=O)([O-])OP(=O)([O-])O1.[Na+].[Na+].[Na+].[Na+].[Na+].[Na+] [sodium hexametaphosphate]
- protective effect against molar erosion [1]: did not produce significant protective effects

SMILES: O=P1([O-])OP(=O)([O-])OP(=O)([O-])O1.[Na+].[Na+].[Na+] [trimetaphosphate]
- effect against dental caries (dental caries): may be effective against dental caries
